The source of these data is patent publication US20100099732A1, “MEDICAMENTS USEFUL AS POTASSIUM CHANNEL MODULATORS” (NeuroSearch A/S, priority 2007, published 2010).

The target in this assay is T1, BK channels (Homo sapiens, UniProt Q12791).
T1 construct: expressed in transfected cells; host or cells: Xenopus laevis oocytes
Put plainly: BK channel opening activity, two-electrode voltage clamp in Xenopus laevis oocytes. The assay is classed as cell-based. How it is done: In this example the BK channel opening activity of a phenylcarbamoyl-methyl-indole derivative for use according to the invention, i.e. 5-Chloro-3-[(3-chloro-phenylcarbamoyl)-methyl]-1H-indole-2-carboxylic acid (herein designated Compound A), is determined using BK channels heterologously expressed in Xenopus laevis oocytes.
The electrical current through the BK channel is measured conventional two-electrode voltage clamp. BK current is activated by repeated step protocols. In brief, this protocol goes from a resting membrane potential of −40 mV lasting for 5 s to a depolarised step to +20 mV lasting for 1 s. The protocol was repeated continuously.
Having reached stable current level, Compound A (10 μM), was added. A marked increase in the current activated by depolarisation could be observed. The BK current activity returned to baseline after approximately 30-60 seconds of wash. In summary BK current was increased by 92±23% in the presence of 10 μM of compound A (n=3, SD value).
On the technique in general: In two-electrode clamp one electrode senses voltage and the other passes current.

Structures are written as SMILES.

T1 sequence (Q12791 whole entry): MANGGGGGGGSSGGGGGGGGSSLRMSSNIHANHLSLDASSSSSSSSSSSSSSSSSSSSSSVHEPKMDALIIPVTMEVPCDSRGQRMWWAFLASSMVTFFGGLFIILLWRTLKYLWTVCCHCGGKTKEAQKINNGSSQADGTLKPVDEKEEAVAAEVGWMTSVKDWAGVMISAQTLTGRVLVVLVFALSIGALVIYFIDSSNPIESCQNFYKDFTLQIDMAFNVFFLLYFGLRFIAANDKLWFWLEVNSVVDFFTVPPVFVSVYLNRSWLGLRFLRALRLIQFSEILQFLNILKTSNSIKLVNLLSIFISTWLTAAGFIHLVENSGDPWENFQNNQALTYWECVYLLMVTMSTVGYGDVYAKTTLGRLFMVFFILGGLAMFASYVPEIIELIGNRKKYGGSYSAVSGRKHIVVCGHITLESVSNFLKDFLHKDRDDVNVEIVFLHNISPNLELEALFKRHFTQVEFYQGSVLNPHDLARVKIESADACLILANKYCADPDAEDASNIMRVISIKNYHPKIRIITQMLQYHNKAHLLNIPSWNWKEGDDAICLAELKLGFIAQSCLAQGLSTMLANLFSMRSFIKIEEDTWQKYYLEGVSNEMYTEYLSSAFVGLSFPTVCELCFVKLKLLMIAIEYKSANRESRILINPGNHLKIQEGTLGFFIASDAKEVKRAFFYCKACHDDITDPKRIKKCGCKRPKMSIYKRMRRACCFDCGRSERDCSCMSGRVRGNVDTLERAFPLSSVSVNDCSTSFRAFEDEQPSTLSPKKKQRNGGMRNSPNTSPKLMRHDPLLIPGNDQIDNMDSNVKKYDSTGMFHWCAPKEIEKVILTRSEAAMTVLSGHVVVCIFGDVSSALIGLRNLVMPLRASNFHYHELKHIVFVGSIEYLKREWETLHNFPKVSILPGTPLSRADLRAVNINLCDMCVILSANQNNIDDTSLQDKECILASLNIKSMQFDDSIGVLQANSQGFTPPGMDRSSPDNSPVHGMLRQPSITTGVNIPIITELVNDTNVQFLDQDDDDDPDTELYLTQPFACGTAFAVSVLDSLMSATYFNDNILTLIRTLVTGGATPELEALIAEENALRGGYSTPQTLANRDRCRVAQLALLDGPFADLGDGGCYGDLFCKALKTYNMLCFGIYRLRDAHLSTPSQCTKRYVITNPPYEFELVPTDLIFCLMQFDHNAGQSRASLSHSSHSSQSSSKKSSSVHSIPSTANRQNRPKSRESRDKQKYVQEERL

Where the note is “10 μM compound, BK channels heterologously expressed in Xenopus laevis oocytes, depolarising step to +20 mV, n=3, SD value”, `O=C(Cc1c(C(=O)O)[nH]c2ccc(Cl)cc12)Nc1cccc(Cl)c1` [Compound A, 5-Chloro-3-[(3-chloro-phenylcarbamoyl)-methyl]-1H-indole-2-carboxylic acid] returned a BK current increase of 92±23%. For the same compound, the “BK current activity return to baseline after wash” value (wash after 10 μM compound, Xenopus laevis oocytes) was in the range of 30 to 60 s.
